Data taken from ChEMBL document CHEMBL1201862, “PubChem BioAssay data set” (2004).
Structures can show the parent of a compound that is named as a salt. Active and inactive are the calls of the source.

Tests used:
[1] = target: T1, Zinc finger protein mex-5 (Caenorhabditis elegans, UniProt Q9XUB2); assay: MEX-5/TCR-2 RNA interaction inhibitors, dose response, biochemical, C. elegans, fluorescence polarization (AID 1960)
T1 sequence (Q9XUB2 whole entry): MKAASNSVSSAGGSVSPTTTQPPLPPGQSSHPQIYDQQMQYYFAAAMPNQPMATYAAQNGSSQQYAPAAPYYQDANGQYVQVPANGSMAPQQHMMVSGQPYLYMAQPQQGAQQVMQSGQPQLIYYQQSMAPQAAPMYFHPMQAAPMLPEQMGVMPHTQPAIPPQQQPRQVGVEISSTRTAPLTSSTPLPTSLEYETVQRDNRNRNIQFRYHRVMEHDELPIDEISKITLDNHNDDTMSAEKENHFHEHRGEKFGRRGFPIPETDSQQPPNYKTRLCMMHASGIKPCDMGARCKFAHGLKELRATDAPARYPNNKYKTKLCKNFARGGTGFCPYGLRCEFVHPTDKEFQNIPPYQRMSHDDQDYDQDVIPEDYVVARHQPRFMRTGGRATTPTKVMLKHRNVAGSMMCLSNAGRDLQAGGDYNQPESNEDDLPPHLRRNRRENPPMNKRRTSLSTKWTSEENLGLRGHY

[2] = target: T2, RNA-binding protein pos-1 (Caenorhabditis elegans, UniProt G5EF15); assay: inhibitors of POS-1/mex-3 RNA binding, dose response, biochemical, fluorescence polarization (AID 1964);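 also: purified POS-1 fused to maltose binding protein made in E. coli; potency of compounds blocking POS-1 binding to fluorescent RNA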
T2 sequence (G5EF15 whole entry): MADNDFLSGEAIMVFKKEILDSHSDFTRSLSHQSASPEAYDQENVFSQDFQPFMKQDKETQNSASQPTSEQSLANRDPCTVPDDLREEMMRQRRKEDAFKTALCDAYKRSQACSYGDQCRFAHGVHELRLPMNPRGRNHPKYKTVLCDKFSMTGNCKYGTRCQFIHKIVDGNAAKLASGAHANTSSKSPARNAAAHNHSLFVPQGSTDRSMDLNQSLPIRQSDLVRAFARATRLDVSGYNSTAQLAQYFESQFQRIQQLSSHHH

[3] = target: Genome polyprotein (Hepatitis C virus, UniProt Q2Q167); assay: HCV core protein dimerization inhibitors, dose response, biochemical, TR-FRET (AID 2159); design: species or system Hepacivirus hominis;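 also: blocks dimerization of HCV core protein measured by TR-FRET between tagged core106 pairs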
[4] = target: Ephrin type-A receptor 4 (Mus musculus, UniProt Q03137); assay: inhibitors of EphA4 binding to KYL peptide, primary screen, biochemical, colorimetric, mouse EphA4 (AID 689); type: functional
[5] = target: Voltage-gated inwardly rectifying potassium channel KCNH2 (Homo sapiens, UniProt Q12809); settings: Potency;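 also: confirmatory quantitative high-throughput screen measuring inhibition of hERG channel activity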
[6] = target: 5-hydroxytryptamine receptor 1A (Homo sapiens, UniProt P08908); type: functional
[7] = Counterscreen for AddAB inhibitors: absorbance-based bacterial cell-based high throughput dose response assay for inhibitors of bacterial viability. [Related pubchem assays (depositor defined):AID435030, AID449728, AID449731, AID488942, AID488955, AID488956]; type: functional
[8] = target: Exodeoxyribonuclease V (Escherichia coli (strain K12), UniProt P04993+P07648+P08394); assay: E. coli RecBCD inhibitors, dose response, counter-screen for AddAB inhibitor project, absorbance, V66 E. coli, mutant T4 phage (AID 492957); type: functional, cell-based, Escherichia coli str. K-12 substr. MG1655
[9] = cytotoxicity in HEK-293T cells, dose response, cytotoxicity control for TCR NF-kB inhibitor project, luminescence, T-cell screen hits (AID 489026); type: functional, cell-based;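 also: cells exposed to compound about 14 hours before the viability readout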
[10] = target: T3, Kappa-type opioid receptor (Homo sapiens, UniProt P41145); type: functional
[11] = tested on: HT-1080; assay: cytotoxicity in HT1080 fibrosarcoma cells, cell-based, fluorescence readout (AID 620); type: functional; settings: Homo sapiens
[12] = target: T3, Kappa-type opioid receptor; type: functional; remark: listed apart in the source
[13] = target: Luciferin 4-monooxygenase (Photinus pyralis, UniProt P08659); assay: Counter Screen for Luciferase-based Assay Positives. [Related pubchem assays: 620, 618, 411 ]
[14] = Vero cell cytotoxicity, dose response, cytotoxicity control for Vif-APOBEC3G degradation inhibitor project, Vero cells (AID 1117358); type: functional; settings: Human immunodeficiency virus 1, Vero
[15] = target: Nonstructural protein 1 (Influenza A virus, UniProt Q194T2); type: functional, Influenza A virus (A/California/07/2009(H1N1))
[16] = target: Heat shock protein HSP 90-alpha (Homo sapiens, UniProt P07900); type: functional, organism-based
[17] = tested on: CHO; assay: cytotoxicity in TLR9-MyD88 CHO cells, dose response, cytotoxicity control for TLR9-MyD88 binding inhibitor project, cell-based, luminescence (AID 588339); type: functional, hamster; settings: Cricetulus griseus;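 also: CHO cells stably coexpressing TLR9 and MyD88 fusions from primary screen; compound exposure lasted 48 hours before viability readout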
[18] = target: Beta-galactosidase (Escherichia coli, UniProt Q8VNN2); type: functional
[19] = inhibitors of Vif binding to APOBEC3G peptide, primary screen, biochemical, TR-FRET, GST-Vif 1-94, biotin-A3G peptide, dose response retest (AID 1117319); type: functional;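 also: TR-FRET signal of purified GST-Vif binding a biotinylated A3G peptide; inhibitors lower the FRET signal by blocking Vif and A3G binding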
[20] = tested on: Vero; assay: host cell cytotoxicity of antiviral hits, dose response, cytotoxicity control for West Nile virus antiviral project, secondary assay (AID 1650); type: functional; settings: Chlorocebus sabaeus
[21] = target: T4, Heat shock factor protein 1 (Mus musculus, UniProt P38532); assay: HSF1 potentiators in luciferase reporter cells, confirmation, cell-based, NIH3T3, luminescence, dose retest (AID 435004); type: functional;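 also: stress induced by proteasome inhibitor MG132 added 30 min after compound; luciferase reporter driven by HSF1 response element in NIH3T3 cells; actives raise luminescence as potentiators of the MG132 stress response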
T4 sequence (P38532 whole entry): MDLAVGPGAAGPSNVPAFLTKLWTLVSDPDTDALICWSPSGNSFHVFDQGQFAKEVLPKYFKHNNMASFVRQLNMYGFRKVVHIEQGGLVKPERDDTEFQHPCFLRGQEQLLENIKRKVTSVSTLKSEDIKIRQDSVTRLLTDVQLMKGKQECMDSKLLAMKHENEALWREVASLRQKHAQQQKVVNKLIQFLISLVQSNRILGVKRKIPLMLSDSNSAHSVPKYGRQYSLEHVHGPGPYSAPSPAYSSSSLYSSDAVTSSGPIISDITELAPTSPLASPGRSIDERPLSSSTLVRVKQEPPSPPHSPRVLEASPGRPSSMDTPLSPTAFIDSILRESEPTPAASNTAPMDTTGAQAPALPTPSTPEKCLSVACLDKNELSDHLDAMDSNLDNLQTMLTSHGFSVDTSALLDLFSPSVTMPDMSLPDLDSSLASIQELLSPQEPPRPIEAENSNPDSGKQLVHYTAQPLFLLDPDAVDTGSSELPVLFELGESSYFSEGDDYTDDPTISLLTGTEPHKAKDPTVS

[22] = target: T5, Microphthalmia-associated transcription factor (Homo sapiens, UniProt O75030); assay: TRPM1 promoter luciferase signal decrease, dose response, MITF inhibitor project, cell-based, SK-MEL-5, cherry-picked, set 3 (AID 493073); type: functional
T5 sequence (O75030 whole entry): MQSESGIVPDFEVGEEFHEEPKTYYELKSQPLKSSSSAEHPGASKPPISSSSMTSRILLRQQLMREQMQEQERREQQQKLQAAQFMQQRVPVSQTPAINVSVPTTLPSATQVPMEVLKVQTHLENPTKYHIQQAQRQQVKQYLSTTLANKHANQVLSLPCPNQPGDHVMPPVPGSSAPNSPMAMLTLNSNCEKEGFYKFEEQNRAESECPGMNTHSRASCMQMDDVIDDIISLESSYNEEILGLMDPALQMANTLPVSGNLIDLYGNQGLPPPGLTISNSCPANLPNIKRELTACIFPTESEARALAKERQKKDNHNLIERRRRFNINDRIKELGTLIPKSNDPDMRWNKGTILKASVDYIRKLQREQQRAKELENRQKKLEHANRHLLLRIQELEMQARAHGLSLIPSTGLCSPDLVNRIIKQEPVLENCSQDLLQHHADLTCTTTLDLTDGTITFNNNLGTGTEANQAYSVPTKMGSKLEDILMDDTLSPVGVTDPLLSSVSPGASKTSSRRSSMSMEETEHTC

[23] = growth suppression of beta-catenin-knockout colon cells, dose response, cell-based, HCT116, human colon tumor (AID 1045); type: functional;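 also: HCT116 colon tumor cells with beta catenin knocked out; cells exposed to compound for 60 hours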
[24] = target: Protein-tyrosine kinase 2-beta (Homo sapiens, UniProt Q14289);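 also: potency of inhibitors of PYK2 kinase phosphorylation of poly-GT substrate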
[25] = target: 26S proteasome non-ATPase regulatory subunit 14 (Homo sapiens, UniProt O00487); assay: inhibition of proteasome subunit RPN11 – biochemical, fluorescence polarization, uHTS hits, confirmation (AID 602368); type: functional
[26] = Luminescence Cell-Based Dose Retest to Confirm Inhibitors of Cancer Stem Cells. [Related pubchem assays (depositor defined):AID2717, AID2721]; type: functional; settings: Homo sapiens
[27] = target: T6, Apoptotic protease-activating factor 1 (Homo sapiens, UniProt O14727); type: functional
T6 sequence (O14727 whole entry): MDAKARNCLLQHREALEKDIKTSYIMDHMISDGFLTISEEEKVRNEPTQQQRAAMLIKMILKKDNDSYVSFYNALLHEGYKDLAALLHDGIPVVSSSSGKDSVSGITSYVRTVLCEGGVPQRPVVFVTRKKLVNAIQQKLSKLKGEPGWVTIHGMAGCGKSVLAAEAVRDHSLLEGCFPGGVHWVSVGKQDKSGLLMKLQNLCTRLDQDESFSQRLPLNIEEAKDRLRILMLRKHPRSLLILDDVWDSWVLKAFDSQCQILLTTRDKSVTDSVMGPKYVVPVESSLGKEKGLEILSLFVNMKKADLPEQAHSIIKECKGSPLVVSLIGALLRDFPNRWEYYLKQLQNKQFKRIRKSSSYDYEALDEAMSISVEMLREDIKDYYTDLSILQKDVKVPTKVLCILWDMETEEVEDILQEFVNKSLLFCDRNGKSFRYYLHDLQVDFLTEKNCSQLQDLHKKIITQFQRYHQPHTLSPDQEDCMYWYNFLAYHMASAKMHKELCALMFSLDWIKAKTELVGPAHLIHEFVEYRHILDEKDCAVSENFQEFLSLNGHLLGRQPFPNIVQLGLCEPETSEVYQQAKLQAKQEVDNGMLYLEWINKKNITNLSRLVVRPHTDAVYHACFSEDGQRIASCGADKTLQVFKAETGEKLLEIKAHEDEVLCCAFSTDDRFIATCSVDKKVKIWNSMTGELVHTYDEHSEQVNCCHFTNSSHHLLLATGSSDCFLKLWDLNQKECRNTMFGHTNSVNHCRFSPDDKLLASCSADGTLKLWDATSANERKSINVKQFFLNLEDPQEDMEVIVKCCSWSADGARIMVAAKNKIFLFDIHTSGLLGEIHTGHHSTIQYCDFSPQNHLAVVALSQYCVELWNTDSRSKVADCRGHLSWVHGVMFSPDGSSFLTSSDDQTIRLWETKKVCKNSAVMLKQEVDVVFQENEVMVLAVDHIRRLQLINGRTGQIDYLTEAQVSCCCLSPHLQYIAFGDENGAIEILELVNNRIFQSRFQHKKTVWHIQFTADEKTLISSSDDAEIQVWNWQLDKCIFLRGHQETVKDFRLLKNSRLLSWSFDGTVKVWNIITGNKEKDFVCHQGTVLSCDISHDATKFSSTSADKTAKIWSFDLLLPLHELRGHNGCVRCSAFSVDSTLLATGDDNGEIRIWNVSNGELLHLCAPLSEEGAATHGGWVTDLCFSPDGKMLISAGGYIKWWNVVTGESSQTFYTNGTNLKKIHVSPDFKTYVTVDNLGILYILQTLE

[28] = target: 72 kDa type IV collagenase (Homo sapiens, UniProt P08253); assay: Dose Response validation of uHTS RPN11 inhibitor hits using a MMP-2 Fluorescence assay.; type: functional
[29] = tested on: A-375; assay: A375 melanoma cell viability reduction, dose response, counter-screen for MITF modulator project, cherry-pick samples, set 2 (AID 540335); type: functional, cell-based; settings: Homo sapiens
[30] = target: Prothrombin (Bos taurus, UniProt P00735); assay: thrombin inhibition, dose response, biochemical, fluorescence polarization, uHTS hits (AID 602369); type: functional
[31] = growth suppression of PTEN-null colon cells, dose response, cell-based, HCT116 PTEN knockout (AID 1047); type: functional;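 also: HCT116 colon tumor cells with PTEN knocked out; cells exposed to compound for 60 hours before readout; potency for loss of cell viability measured by luminescence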

T3 sequence (P41145 whole entry): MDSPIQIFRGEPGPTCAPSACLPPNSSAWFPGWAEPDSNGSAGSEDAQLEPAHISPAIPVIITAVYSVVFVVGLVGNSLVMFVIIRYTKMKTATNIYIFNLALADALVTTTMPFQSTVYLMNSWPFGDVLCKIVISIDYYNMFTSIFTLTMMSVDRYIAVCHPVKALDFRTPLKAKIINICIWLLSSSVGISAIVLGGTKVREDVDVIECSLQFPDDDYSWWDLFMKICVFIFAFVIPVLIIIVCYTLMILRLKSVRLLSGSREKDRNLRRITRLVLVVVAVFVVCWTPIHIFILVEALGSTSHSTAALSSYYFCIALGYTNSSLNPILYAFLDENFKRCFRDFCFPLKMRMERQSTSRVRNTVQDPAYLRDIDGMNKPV
Luciferin 4-monooxygenase, sequence (P08659 whole entry): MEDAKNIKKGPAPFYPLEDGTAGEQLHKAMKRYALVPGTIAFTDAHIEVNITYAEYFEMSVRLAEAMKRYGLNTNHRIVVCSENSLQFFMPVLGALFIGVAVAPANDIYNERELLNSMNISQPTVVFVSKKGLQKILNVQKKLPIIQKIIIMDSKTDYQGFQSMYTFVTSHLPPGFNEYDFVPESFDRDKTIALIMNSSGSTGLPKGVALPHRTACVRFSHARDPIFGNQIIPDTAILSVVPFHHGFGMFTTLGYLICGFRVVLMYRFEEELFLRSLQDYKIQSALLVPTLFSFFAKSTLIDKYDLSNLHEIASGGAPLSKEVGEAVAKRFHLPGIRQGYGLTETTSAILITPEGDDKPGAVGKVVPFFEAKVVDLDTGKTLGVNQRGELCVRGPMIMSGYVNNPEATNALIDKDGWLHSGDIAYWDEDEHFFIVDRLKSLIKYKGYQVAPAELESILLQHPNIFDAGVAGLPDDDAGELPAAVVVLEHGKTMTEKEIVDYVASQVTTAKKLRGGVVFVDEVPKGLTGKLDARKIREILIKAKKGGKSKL
5-hydroxytryptamine receptor 1A, sequence (P08908 whole entry): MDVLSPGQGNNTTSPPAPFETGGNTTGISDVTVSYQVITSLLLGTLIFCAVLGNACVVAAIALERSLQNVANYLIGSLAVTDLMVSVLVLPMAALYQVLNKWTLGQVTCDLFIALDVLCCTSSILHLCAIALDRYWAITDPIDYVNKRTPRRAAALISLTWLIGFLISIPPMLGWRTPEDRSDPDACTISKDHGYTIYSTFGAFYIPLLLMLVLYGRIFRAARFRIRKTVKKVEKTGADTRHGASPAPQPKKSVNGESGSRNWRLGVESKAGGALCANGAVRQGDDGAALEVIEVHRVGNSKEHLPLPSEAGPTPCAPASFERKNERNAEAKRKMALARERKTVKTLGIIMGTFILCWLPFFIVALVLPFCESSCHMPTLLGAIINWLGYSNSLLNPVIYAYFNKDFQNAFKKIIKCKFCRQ
Genome polyprotein, sequence (Q2Q167 whole entry): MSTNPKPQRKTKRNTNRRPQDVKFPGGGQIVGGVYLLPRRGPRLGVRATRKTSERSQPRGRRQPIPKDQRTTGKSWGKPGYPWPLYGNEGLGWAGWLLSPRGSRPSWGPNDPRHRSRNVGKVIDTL
Nonstructural protein 1, sequence (Q194T2 whole entry): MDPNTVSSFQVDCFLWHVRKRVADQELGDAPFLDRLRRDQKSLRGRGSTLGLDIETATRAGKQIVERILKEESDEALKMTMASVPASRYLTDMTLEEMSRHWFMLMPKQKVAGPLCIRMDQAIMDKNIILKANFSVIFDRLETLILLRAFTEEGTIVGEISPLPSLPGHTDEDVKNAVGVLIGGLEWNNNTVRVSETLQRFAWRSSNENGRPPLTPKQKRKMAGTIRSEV
Ephrin type-A receptor 4, sequence (Q03137 whole entry): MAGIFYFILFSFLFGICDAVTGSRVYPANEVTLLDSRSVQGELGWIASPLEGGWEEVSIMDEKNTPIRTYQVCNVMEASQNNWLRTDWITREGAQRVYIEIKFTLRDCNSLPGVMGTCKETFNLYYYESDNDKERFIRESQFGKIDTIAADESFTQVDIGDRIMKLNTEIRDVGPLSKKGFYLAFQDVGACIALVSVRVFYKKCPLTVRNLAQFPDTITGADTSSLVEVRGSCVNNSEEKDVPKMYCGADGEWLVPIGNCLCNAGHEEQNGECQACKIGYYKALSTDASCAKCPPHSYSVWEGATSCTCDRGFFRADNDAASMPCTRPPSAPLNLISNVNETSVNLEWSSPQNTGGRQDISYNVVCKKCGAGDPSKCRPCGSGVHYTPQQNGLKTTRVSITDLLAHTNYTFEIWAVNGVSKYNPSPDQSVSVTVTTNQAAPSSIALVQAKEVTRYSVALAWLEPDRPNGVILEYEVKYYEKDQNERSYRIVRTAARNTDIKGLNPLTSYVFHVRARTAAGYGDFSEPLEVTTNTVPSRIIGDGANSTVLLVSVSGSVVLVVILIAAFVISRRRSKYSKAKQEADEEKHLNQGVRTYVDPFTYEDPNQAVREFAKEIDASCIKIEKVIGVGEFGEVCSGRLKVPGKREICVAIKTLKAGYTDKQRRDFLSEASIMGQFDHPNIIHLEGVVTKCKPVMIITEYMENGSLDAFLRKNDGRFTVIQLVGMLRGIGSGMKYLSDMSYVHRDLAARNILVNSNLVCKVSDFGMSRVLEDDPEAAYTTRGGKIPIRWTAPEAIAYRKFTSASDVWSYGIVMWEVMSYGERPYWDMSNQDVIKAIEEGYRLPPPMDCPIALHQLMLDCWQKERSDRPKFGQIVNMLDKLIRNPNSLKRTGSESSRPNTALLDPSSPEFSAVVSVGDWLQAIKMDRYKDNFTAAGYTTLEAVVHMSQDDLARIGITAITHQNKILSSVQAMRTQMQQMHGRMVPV
26S proteasome non-ATPase regulatory subunit 14, sequence (O00487 whole entry): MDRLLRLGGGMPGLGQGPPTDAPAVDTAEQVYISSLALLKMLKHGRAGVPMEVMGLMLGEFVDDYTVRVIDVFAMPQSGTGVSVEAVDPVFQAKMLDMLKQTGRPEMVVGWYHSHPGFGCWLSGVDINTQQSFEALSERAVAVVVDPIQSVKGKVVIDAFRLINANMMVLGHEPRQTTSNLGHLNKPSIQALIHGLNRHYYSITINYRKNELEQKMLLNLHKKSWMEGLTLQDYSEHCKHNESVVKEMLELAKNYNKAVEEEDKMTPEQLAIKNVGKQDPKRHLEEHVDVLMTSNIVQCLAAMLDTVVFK
72 kDa type IV collagenase, sequence (P08253 whole entry): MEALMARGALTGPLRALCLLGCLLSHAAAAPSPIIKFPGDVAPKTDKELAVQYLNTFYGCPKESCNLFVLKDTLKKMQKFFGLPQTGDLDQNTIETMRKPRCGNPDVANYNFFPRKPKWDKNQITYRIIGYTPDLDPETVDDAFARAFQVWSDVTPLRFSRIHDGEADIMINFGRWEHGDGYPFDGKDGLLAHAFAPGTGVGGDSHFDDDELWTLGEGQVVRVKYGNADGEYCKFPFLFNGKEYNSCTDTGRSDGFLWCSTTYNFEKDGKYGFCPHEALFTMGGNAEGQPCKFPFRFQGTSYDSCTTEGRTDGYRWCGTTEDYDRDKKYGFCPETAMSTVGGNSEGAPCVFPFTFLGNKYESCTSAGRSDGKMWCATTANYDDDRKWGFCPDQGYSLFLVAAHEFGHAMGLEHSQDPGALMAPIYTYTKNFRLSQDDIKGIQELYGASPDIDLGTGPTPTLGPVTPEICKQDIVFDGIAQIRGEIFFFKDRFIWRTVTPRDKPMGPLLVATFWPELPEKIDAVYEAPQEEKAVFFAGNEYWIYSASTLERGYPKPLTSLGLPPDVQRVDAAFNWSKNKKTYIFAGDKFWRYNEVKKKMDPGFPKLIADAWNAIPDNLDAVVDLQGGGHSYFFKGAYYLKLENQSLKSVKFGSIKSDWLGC
Voltage-gated inwardly rectifying potassium channel KCNH2, sequence (Q12809 whole entry): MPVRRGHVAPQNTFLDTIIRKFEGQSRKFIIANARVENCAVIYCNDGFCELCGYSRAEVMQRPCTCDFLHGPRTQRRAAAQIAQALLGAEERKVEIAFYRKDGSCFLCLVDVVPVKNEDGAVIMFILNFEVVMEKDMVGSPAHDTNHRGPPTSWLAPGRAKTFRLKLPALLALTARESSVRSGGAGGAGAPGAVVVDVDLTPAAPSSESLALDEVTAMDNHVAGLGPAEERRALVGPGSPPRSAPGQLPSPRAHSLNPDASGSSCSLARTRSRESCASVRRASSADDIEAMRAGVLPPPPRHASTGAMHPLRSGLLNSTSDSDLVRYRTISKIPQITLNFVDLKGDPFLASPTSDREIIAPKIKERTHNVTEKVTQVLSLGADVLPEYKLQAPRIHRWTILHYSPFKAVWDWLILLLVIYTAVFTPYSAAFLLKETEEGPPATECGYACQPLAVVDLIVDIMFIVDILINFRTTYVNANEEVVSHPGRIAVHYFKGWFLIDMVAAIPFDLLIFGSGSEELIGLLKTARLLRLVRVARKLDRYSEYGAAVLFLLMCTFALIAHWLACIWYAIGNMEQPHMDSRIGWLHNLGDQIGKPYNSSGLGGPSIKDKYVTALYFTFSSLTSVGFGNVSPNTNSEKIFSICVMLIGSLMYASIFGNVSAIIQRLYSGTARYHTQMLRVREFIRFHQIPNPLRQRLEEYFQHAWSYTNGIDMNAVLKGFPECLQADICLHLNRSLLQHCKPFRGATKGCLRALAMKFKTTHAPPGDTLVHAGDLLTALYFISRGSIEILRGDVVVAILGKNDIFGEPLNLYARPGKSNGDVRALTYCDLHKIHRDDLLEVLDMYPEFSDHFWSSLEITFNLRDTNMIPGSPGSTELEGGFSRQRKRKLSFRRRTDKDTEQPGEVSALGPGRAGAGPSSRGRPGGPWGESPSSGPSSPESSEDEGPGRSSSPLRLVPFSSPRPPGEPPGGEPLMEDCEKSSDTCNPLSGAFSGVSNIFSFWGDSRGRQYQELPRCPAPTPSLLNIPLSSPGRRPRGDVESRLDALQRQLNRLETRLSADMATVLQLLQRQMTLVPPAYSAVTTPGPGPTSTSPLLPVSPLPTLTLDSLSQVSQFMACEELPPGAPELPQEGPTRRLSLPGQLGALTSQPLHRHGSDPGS

O=C1CSC(=S)N1/N=C/c1ccc(Cl)c([N+](=O)[O-])c1
EC50 [1]: 15.7 µM (active)
EC50 [2]: 18.6 µM (active)
IC50 [3]: > 49.8 µM (not active)

Cc1cc(C)c2nc(N3CCCN(C(=O)c4ccco4)CC3)c(C#N)cc2c1
IC50 [4]: 16.6 µM (active)

Cc1cc(C(C)(C)C)cc(C)c1CC1=NCCN1 [XYLOMETAZOLINE HYDROCHLORIDE]
AC50 [5]: 14.1 µM (inconclusive)
EC50 [6]: 0.129 µM (active)
IC50 [7]: 29.7 µM (inactive)
IC50 [8]: > 119 µM (inactive)

O=S1(=O)Nc2c(ccc3cccnc23)-c2ccccc21
IC50 [9]: > 80 µM (inactive)
IC50 [10]: > 32 µM
EC50 [11]: > 50 µM (not active)
IC50 [12]: 1.3 µM (active)
EC50 [13]: 2.82 µM (active)
CC50 [14]: 13.8 µM (active)
IC50 [15]: 3.63 µM (active)
AC50 [16]: < 0.195 µM (active)
IC50 [17]: 1.77 µM (active)
EC50 [18]: > 31.5 µM (inactive)
IC50 [19]: > 100 µM (active)
CC50 [20]: 4.21 µM (active)
EC50 [21]: 2.76 µM (active)

CCOc1ccc2nc(NC3=NC(=O)CC(c4ccc(OC)cc4)N3)nc(C)c2c1 (stereo unspecified)
AC50 [22]: 9.49 µM (active)
EC50 [23]: 7.4 µM (active)
IC50 [24]: 5.85 µM (active)
IC50 [25]: 22 µM (active)
AC50 [26]: 8.71 µM (active)
IC50 [27]: 17.6 µM (active)
IC50 [28]: > 100 µM (inactive)
AC50 [29]: 27.7 µM (active)
IC50 [30]: 77.6 µM (active)
EC50 [31]: 9.86 µM (active)
